Measurements as given in patent publication US20040086901A1, “Database for analyzing gene function and method of analyzing gene function by dspa” (priority 2000, published 2004).

Columns and labels:
Type in all cases: cell-based, mouse
[1] = test system: NIH3T3 cells overexpressing ERK-DN; test: MTT cell viability, ERK-DN overexpressing cells vs parental line; settings: ERK-DN high-expressing cells / parental cell line, 3 to 4 days
Protocol: (§1) With regard to the function-known genes, the genes shown in the left column of Table 2 were used. With regard to the drugs, those shown in Table 1 were dissolved in DMSO to an extent of 100-fold of the maximum concentration for the search of the drugs and used. With regard to the cells, incubated NIH3T3 or ras-NIH3T3 cells were used.
(§2) Full-length cDNA of each function-known genes was incorporated into an expression vector (pRc-CMV, etc.) and transfected into NIH3T3 cells by a common method. Transformed cells were isolated using the resistance to G-418 as an index and the expression of the transfected gene in each cell was investigated by Western blotting method to select a highly expressing line.
(§3) Cell viabilities were measured according to the following procedures.
(§4) 1) From the 2nd to the 11th rows of a 96-well plate were filled with DMEM (50 μl). The 12th row was filled with 100 μl of DMEM.
(§5) 2) The 1st row was filled with 98 μl of DMEM.
(§6) 3) Drugs (2 μl each) were added into the 1st row.
(§7) 4) Continuous double-dilution was conducted from the 1st to the 9th rows. Fifty μl were taken out from the 9th row and discarded. The plate was preserved in a CO2 incubator.
(§8) 5) Cells (each high-expressing cells and the parental cell line) were detached from the medium using a trypsin solution, suspended in 10% CS-DMEM and transferred to a test tube and cell numbers (cell/ml) were counted.
(§9) 6) The cells were diluted to a concentration of 1×10^5 cells/ml, and 50 μl of the cell suspension were added to the 1st to the 11th rows of the plate followed by gently stirring.
(§10) 7) The plate was transferred to the CO2 incubator and incubated for 3 to 4 days.
(§11) 8) MTT (5 mg/ml in PBS) (10 μl) was added to the 1st to the 12th rows of the plate and incubated in the CO2 incubator at 37° C. for 4 hours.
(§12) 9) A reaction stop solution (0.04N HCl in isopropanol) (150 μl) was added followed by mixing well and being allowed to stand at room temperature for about 2 hours.
(§13) 10) Coloration of formazan which was a metabolite of the MTT dye was measured using a microplate reader. The measurement wavelength was 574 nm and the reference wavelength was 655 nm. The 10th and the 11th rows of the plate were 100% controls and the 12th row was a 0% control.
(§14) As an index for the sensitivity of highly gene-expressing cells and the parental cell line to various drugs, each of the IC40 values thereof was specified and ratios of the IC40 values were calculated. […] After that, logarithmic values of ratios of IC40 values were calculated from each gene.

[2] = test system: NIH3T3 cells overexpressing Cip-1; test: MTT cell viability, Cip-1 overexpressing cells vs parental line; settings: Cip-1 high-expressing cells / parental cell line, 3 to 4 days
Protocol: as §1, §2, §3, §4, §5, §6, §7, §8, §9, §10, §11, §12, §13, §14

[3] = test system: NIH3T3 cells overexpressing Gluco-corticoid-R; test: MTT cell viability, Gluco-corticoid-R overexpressing cells vs parental line; settings: Gluco-corticoid-R high-expressing cells / parental cell line, 3 to 4 days
Protocol: as §1, §2, §3, §4, §5, §6, §7, §8, §9, §10, §11, §12, §13, §14

[4] = test system: NIH3T3 cells overexpressing RhoA-DN; test: MTT cell viability, RhoA-DN overexpressing cells vs parental line; settings: RhoA-DN high-expressing cells / parental cell line, 3 to 4 days
Protocol: as §1, §2, §3, §4, §5, §6, §7, §8, §9, §10, §11, §12, §13, §14

[5] = test system: NIH3T3 cells overexpressing CaMKIIa-Active; test: MTT cell viability, CaMKIIa-Active overexpressing cells vs parental line; settings: CaMKIIa-Active high-expressing cells / parental cell line, 3 to 4 days
Protocol: as §1, §2, §3, §4, §5, §6, §7, §8, §9, §10, §11, §12, §13
As an index for the sensitivity of highly gene-expressing cells and the parental cell line to various drugs, each of the IC40 values thereof was specified and ratios of the IC40 values were calculated. FIG. 2 and FIG. 3 are the examples where ratios of IC40 values were calculated from a curve showing the dependency on the concentration of the chemical versus the viability. After that, logarithmic values of ratios of IC40 values were calculated from each gene.

[6] = test system: NIH3T3 cells overexpressing T.Tn; test: MTT cell viability, T.Tn overexpressing cells vs parental line; settings: T.Tn high-expressing cells / parental cell line, 3 to 4 days
Protocol: as §1, §2, §3, §4, §5, §6, §7, §8, §9, §10, §11, §12, §13, §14

| SMILES | logarithmic value of ratio of IC40 values [1] | logarithmic value of ratio of IC40 values [2] | logarithmic value of ratio of IC40 values [3] | logarithmic value of ratio of IC40 values [4] | logarithmic value of ratio of IC40 values [5] | logarithmic value of ratio of IC40 values [6] |
| --- | --- | --- | --- | --- | --- | --- |
| CO[C@H]1[C@@H](OC)C[C@H](C)[C@@H](OC)C2=CC(=O)C=C(NC(=O)/C(C)=C/C=C\[C@H](OC)[C@@H](OC(N)=O)/C(C)=C/[C@@H]1C)C2=O [HMA, herbimycin A] | 0.00 | −0.30 | −0.11 | −0.10 | 0.51 | 0.00 |
| CC(=O)OCOC(=O)CN(CC(=O)OCOC(C)=O)c1ccccc1OCCOc1ccccc1N(CC(=O)OCOC(C)=O)CC(=O)OCOC(C)=O [BAPTA-AM] | 0.12 | 0.00 | 0.10 | 0.09 | 0.18 | 0.11 |
| C=C1[C@@H](O)[C@@H]2O[C@]3(CC[C@H](/C=C/[C@@H](C)[C@@H]4CC(C)=C[C@@]5(O[C@H](C[C@@](C)(O)C(=O)O)CC[C@H]5O)O4)O3)CC[C@H]2O[C@@H]1[C@@H](O)C[C@H](C)[C@H]1O[C@@]2(CCCCO2)CC[C@H]1C [OA, okadaic acid] | 0.00 | −0.15 | 0.06 | 0.00 | 0.14 | −0.16 |
